This is an account of results in patent US7501410B2, “Methods of inhibiting BTK and SYK protein kinases” (Roche Palo Alto LLC, priority 2006, dated 2009).

Test [1] deals with T1, Bruton's Tyrosine Kinase (Btk) (Homo sapiens, UniProt Q06187).
T1 construct: 5-10 nM Btk enzyme (His-tagged, full-length); His tag
In words: Determination of IC50 of Bruton's Tyrosine Kinase (Btk) inhibition, 33P filtration assay. The class given is biochemical. Conditions: His-tagged full-length Btk, 100 μM ATP. The essentials:
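Full-length His-tagged Btk (5-10 nM) preincubated 10 min at RT with compounds, then 30 min at 30° C with 30 μM biotinylated SH2 peptide, 100 μM ATP plus ^33P ATP, Mn/Mg in imidazole buffer pH 7.2. Product captured on streptavidin beads, counted by scintillation; 10-point half-log IC50 from 100 μM, background without substrate.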

The test system of a further test is Ramos cells. In words: Inhibition of B-cell activation, B cell FLIPR assay in Ramos cells. The class given is cell-based. Conditions: Homo sapiens, anti-IgM stimulated intracellular calcium increase. From the text:
Inhibition of B-cell Activation—B Cell FLIPR Assay in Ramos Cells
The B cell FLIPR assay is a cell based functional method of determining the effect of potential inhibitors of the intracellular calcium increase from stimulation by an anti-IgM antibody. Ramos cells (human Burkitt's lymphoma cell line. ATCC-No. CRL-1596) were cultivated in Growth Media (described below). One day prior to assay, Ramos cells were resuspended in fresh growth media (same as above) and set at a concentration of 0.5×10^6/mL in tissue culture flasks. On day of assay, cells were counted and set at a concentration of 1×10^6/mL in growth media supplemented with 1 μM FLUO-3 AM(TefLabs Cat-No. 0116, prepared in anhydrous DMSO and 10% Pluronic acid) in a tissue culture flask, and incubated at 37° C. (4% CO2) for 1 h. To remove extracellular dye, cells were collected by centrifugation (5 min, 1000 rpm), resuspended in FLIPR buffer (described below) at 1×10^6 cells/mL and then dispensed into 96-well poly-D-lysine coated black/clear plates (BD Cat-No. 356692) at 1×10^5 cells per well. Test compounds at seven concentrations ranging from 100 μM to 0.03 μM were added, and allowed to incubate with cells for 30 min at RT. Ramos cell Ca^2+ signaling was stimulated by the addition of 10 μg/mL anti-IgM (Southern Biotech, Cat-No. 2020-01) and measured on a FLIPR (Molecular Devices, captures images of 96 well plates using a CCD camera with an argon laser at 480 nm excitation).
Growth Medium: RPMI 1640 medium with L-glutamine (Invitrogen, Cat-No. 61870-010), 10% Fetal Bovine Serum (FBS, Summit Biotechnology Cat-No. FP-100-05); 1 mM Sodium Pyruvate (Invitrogen Cat. No. 11360-070).
FLIPR buffer: HBSS (Invitrogen, Cat-No. 141175-079),2 mM CaCl2 (Sigma Cat-No. C-4901), HEPES (Invitrogen, Cat-No. 15630-080), 2.5 mM Probenecid (Sigma, Cat-No. P-8761), 0.1% BSA (Sigma, Cat-No. A-7906), 11 mM Glucose (Sigma, Cat-No. G-7528).
In order to achieve the highest final assay concentration of 100 μM, 24 μL of 10 mM compound stock solution (made in DMSO) is added directly to 576 μL of FLIPR buffer. The test compounds are diluted in FLIPR Buffer (using Biomek 2000 robotic pipettor) resulting in the following dilution scheme: vehicle, 1.00×10^−4 M, 1.00×10^−5, 3.16×10^−6, 1.00×10^−6, 3.16×10^−7, 1.00×10^−7, 3.16×10^−8.
Intracellular increases in calcium were reported using a max-min statistic (subtracting the resting baseline from the peak caused by addition of the stimulatory antibody using a Molecular Devices FLIPR control and statistic exporting software. The IC50 was determined using a non-linear curve fit (GraphPad Prism software). Representative results are in Table 1.
Background: Calcium flux is commonly read through the fluorescence of an indicator in the cells.

SMILES strings stand for the structures.

T1 sequence (Q06187 whole entry): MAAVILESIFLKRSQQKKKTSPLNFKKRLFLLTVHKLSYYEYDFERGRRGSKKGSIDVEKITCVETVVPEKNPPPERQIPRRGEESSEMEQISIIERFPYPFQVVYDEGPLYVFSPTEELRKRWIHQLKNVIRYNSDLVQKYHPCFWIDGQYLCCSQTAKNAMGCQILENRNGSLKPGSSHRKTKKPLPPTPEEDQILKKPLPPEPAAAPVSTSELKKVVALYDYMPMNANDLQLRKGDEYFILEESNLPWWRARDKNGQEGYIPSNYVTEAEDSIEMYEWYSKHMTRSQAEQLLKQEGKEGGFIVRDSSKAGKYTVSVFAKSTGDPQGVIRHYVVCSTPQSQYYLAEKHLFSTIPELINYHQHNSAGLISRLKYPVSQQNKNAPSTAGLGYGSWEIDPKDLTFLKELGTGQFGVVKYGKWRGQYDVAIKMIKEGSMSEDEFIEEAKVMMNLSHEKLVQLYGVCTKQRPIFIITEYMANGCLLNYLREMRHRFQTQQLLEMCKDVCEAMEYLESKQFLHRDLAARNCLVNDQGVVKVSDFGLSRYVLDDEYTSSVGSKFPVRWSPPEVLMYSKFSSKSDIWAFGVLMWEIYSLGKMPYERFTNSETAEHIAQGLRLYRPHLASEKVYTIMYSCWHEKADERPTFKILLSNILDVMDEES

The IC50 is the concentration needed to halve the response being measured. As for `Cc1cc(Nc2nn(C(C)C)c(=O)c3cc(N4CCOCC4)ccc23)n[nH]1` [Example F-1, 2-Isopropyl-4-(5-methyl-1H-pyrazol-3-ylamino)-7-morpholino-2H-phthalazin-1-one], the results for the IC50 (in test [1]; with Ramos cells) were 0.275 µM and 1.2 µM, respectively.

Turning to `Cc1cc(Nc2nn(C(C)C)c(=O)c3cc(N4CCN(C)CC4)ccc23)[nH]n1` [Example F-5, 2-Isopropyl-7-(4-methyl-piperazin-1-yl)-4-(5-methyl-2H-pyrazol-3-ylamino)-2H-phthalazin-1-one], the values for the IC50 (in test [1]; in the test on Ramos cells) were 0.102 µM and 0.41 µM, respectively.

Consider `Cc1cc(Nc2nn(C(C)C)c(=O)c3cc(OCCN(C)C)ccc23)n[nH]1` [Example ZD-5, 7-(2-Dimethylamino-ethoxy)-2-isopropyl-4-(5-methyl-1H-pyrazol-3-ylamino)-2H-phthalazin-1-one], for which the figures for the IC50 (in test [1]; in the test on Ramos cells) were 0.186 µM and 0.575 µM, respectively.
